US12521393B2, “Cytotoxicity targeting chimeras for CCR2-expressing cells” (GLAXOSMITHKLINE INTELLECTUAL PROPERTY DEVELOPMENT LIMITED, priority 2021, dated 2026)

How the values were obtained:
[1] = system: endogenous target monocytes in human PBMC; test: PBMC ex vivo monocyte depletion flow cytometry assay (Example 200); assay type: cell-based; conditions: with anti-cotinine antibody (SEQ ID NO: 11/12), 18-24 hours, EC50 in molar, read-out: Ex Vivo Depletion Assay pEC50 (converted)
Outline: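 Monocyte depletion is reported as pEC50, averaged or given individually across runs, and read by flow cytometry staining CD45, CD14 and CD4 with a viability dye. Compounds, diluted four-fold over 11 points from 1 mM DMSO stocks, were combined with 30 μg/mL Fc-enhanced anti-cotinine antibody and human PBMC, then incubated 18-24 h at 37° C.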

[2] = target: anti-cotinine antibody (SEQ ID NO: 11/12, rabbit variable region with human IgG1 Fc DE mutation); test: SPR binding of anti-cotinine antibody to ARM compounds, Biacore T200, 37° C. (Example 202); conditions: SPR Biacore T200, 37° C., pH 7.4, antibody SEQ ID NO: 11/12 captured on protein A; Kd in molar
Experimental: Anti-cotinine antibodies having a heavy chain sequence of SEQ ID NO: 11 and a light chain sequence of SEQ ID NO: 12 (rabbit variable region with human IgG1 Fc domain containing a DE mutation (S239D/1332E)) were captured on one or more flow cells of a protein A sensor chip (Cytiva) using a Biacore T200 while reserving flow cell 1 as a reference. Following capture, a 3000 second wait step was included to reduce drift during compound analysis. ARM compounds of Formula (I) were then injected at 100 μL/min with 200 and 2000 second association and dissociation times. The entire experiment was run at 37° C. with running buffer containing 10 mM HEPES pH 7.4, 150 mM NaCl, 0.005% P20 and 1% DMSO. ARM compounds of Formula (I) were titrated with a top concentration of 200 nM using a 3-fold 5-point dilution series and a corresponding 5-injection buffer cycle was run for blank subtraction. Data were double referenced by subtracting the response of the reference flow cell from that of the antibody-containing flow cell and subsequently subtracting the referenced blank sensorgrams. Following compound analysis, the surface was regenerated using a 30 second injection of pH 1.5 glycine at a flow rate of 30 μL/min after which antibody was re-captured. The experiment was run using Biacore T200 control software and evaluated using Biacore T200 Evaluation software. Curves were fit with a 1:1 kinetic binding model to obtain kon (1/Ms), koff(1/s), Kd (M) determined as koff/kon, and residence time determined as 1/koff (s).
Anti-cotinine antibody was tested for binding to ARMs compounds of Formula (I) of the invention in the above assay in or more experimental runs and the results are shown in Table 5 below. Affinity is reported as a pKd value. The pKd value is the negative log of the Kd value, wherein the Kd value is the dissociation constant measured in molar (M) as noted above. For compounds tested in more than one experimental run, the pKd value is reported as an average

Structure (SMILES) | EC50 [1] [nM] | pKd of Antibody for ARM Compound of Formula (I) [2]
CC(C)N(C)[C@@H]1CC[C@H](N2CC[C@H](Nc3ncnc4ccc(C(F)(F)F)cc34)C2=O)[C@H](NC(=O)CCOCCNC(=O)[C@H]2CC[C@@H](NC(=O)CCOCCNC(=O)[C@H]3CC(=O)N(C)[C@@H]3c3cccnc3)CC2)C1 [Example 110, (2S,3S)-N-(2-(3-(((1S,4R)-4-((2-(3-(((1R,2S,5R)-5-(Isopropyl(methyl)amino)-2-((S)-2-oxo-3-((6-(trifluoromethyl)quinazolin-4-yl)amino)pyrrolidin-1-yl)cyclohexyl)amino)-3-oxopropoxy)ethyl)carbamoyl)cyclohexyl)amino)-3-oxopropoxy)ethyl)-1-methyl-5-oxo-2-(pyridin-3-yl)pyrrolidine-3-carboxamide] | 0.0501 | 8.9085
CC(C)N(C)[C@@H]1CC[C@H](N2CC[C@H](Nc3ncnc4ccc(C(F)(F)F)cc34)C2=O)[C@H](NC(=O)[C@H]2CC[C@@H](NC(=O)CCO[C@H]3CC[C@H](OCCNC(=O)[C@H]4CC(=O)N(C)[C@@H]4c4cccnc4)CC3)CC2)C1 [Example 112, (2S,3S)-N-(2-(((1S,4S)-4-(3-(((1S,4S)-4-(((1R,2S,5R)-5-(Isopropyl(methyl)amino)-2-((S)-2-oxo-3-((6-(trifluoromethyl)quinazolin-4-yl)amino)pyrrolidin-1-yl)cyclohexyl)carbamoyl)cyclohexyl)amino)-3-oxopropoxy)cyclohexyl)oxy)ethyl)-1-methyl-5-oxo-2-(pyridin-3-yl)pyrrolidine-3-carboxamide] | 0.794 | 9.343
CC(C)N(C)[C@@H]1CC[C@H](N2CC[C@H](Nc3ncnc4ccc(C(F)(F)F)cc34)C2=O)[C@H](NC(=O)[C@H]2CC[C@H](NC(=O)CCO[C@H]3CC[C@H](OCCNC(=O)[C@H]4CC(=O)N(C)[C@@H]4c4cccnc4)CC3)CC2)C1 [Example 113, (2S,3S)-N-(2-(((1R,4S)-4-(3-(((1R,4R)-4-(((1R,2S,5R)-5-(Isopropyl(methyl)amino)-2-((S)-2-oxo-3-((6-(trifluoromethyl)quinazolin-4-yl)amino)pyrrolidin-1-yl)cyclohexyl)carbamoyl)cyclohexyl)amino)-3-oxopropoxy)cyclohexyl)oxy)ethyl)-1-methyl-5-oxo-2-(pyridin-3-yl)pyrrolidine-3-carboxamide] | 3.16 | 9.767
CC(C)N(C)[C@@H]1CC[C@H](N2CC[C@H](Nc3ncnc4ccc(C(F)(F)F)cc34)C2=O)[C@H](NC(=O)[C@H]2C[C@@H](NC(=O)CCO[C@H]3CC[C@H](OCCNC(=O)[C@H]4CC(=O)N(C)[C@@H]4c4cccnc4)CC3)C2)C1 [Example 115, (2S,3S)-N-(2-(((1S,4S)-4-(3-(((1S,3S)-3-(((1R,2S,5R)-5-(Isopropyl(methyl)amino)-2-((S)-2-oxo-3-((6-(trifluoromethyl)quinazolin-4-yl)amino)pyrrolidin-1-yl)cyclohexyl)carbamoyl)cyclobutyl)amino)-3-oxopropoxy)cyclohexyl)oxy)ethyl)-1-methyl-5-oxo-2-(pyridin-3-yl)pyrrolidine-3-carboxamide] | 0.158 | 9.363
CC(C)N(C)[C@@H]1CC[C@H](N2CC[C@H](Nc3ncnc4ccc(C(F)(F)F)cc34)C2=O)[C@H](NC(=O)COCCNC(=O)COCCOCCNC(=O)CCNC(=O)[C@H]2CC(=O)N(C)[C@@H]2c2cccnc2)C1 [Example 143, (2S,3S)-N-(1-(((1R,2S,5R)-5-(Isopropyl(methyl)amino)-2-((S)-2-oxo-3-((6-(trifluoromethyl)quinazolin-4-yl)amino)pyrrolidin-1-yl)cyclohexyl)amino)-1,7,16-trioxo-3,9,12-trioxa-6,15-diazaoctadecan-18-yl)-1-methyl-5-oxo-2-(pyridin-3-yl)pyrrolidine-3-carboxamide] | 2.51 | 9.275
CC(C)N(C)[C@@H]1CC[C@H](N2CC[C@H](Nc3ncnc4ccc(C(F)(F)F)cc34)C2=O)[C@H](NC(=O)COCCNC(=O)COCCNC(=O)CCOCCNC(=O)[C@H]2CC(=O)N(C)[C@@H]2c2cccnc2)C1 [Example 151, (2S,3S)-N-(1-(((1R,2S,5R)-5-(Isopropyl(methyl)amino)-2-((S)-2-oxo-3-((6-(trifluoromethyl)quinazolin-4-yl)amino)pyrrolidin-1-yl)cyclohexyl)amino)-1,7,13-trioxo-3,9,16-trioxa-6,12-diazaoctadecan-18-yl)-1-methyl-5-oxo-2-(pyridin-3-yl)pyrrolidine-3-carboxamide] | 2 | 9.0755
CC(C)N(C)[C@@H]1CC[C@H](N2CC[C@H](Nc3ncnc4ccc(C(F)(F)F)cc34)C2=O)[C@H](NC(=O)CCOCCOCCOCCNc2c(NCCNC(=O)[C@H]3CC(=O)N(C)[C@@H]3c3cccnc3)c(=O)c2=O)C1 [Example 168, (2S,3S)-N-(2-((2-((2-(2-(2-(3-(((1R,2S,5R)-5-(Isopropyl(methyl)amino)-2-((S)-2-oxo-3-((6-(trifluoromethyl)quinazolin-4-yl)amino)pyrrolidin-1-yl)cyclohexyl)amino)-3-oxopropoxy)ethoxy)ethoxy)ethyl)amino)-3,4-dioxocyclobut-1-en-1-yl)amino)ethyl)-1-methyl-5-oxo-2-(pyridin-3-yl)pyrrolidine-3-carboxamide] | 1 | 9.06
CC(C)N(C)[C@@H]1CC[C@H](N2CC[C@H](Nc3ncnc4ccc(C(F)(F)F)cc34)C2=O)[C@H](NC(=O)[C@H]2CC[C@@H](NC(=O)CCOCCNC(=O)COCCCNC(=O)[C@H]3CC(=O)N(C)[C@@H]3c3cccnc3)CC2)C1 [Example 175, (2S,3S)-N-(3-(2-((2-(3-(((1S,4s)-4-(((1R,2S,5R)-5-(Isopropyl(methyl)amino)-2-((S)-2-oxo-3-((6-(trifluoromethyl)quinazolin-4-yl)amino)pyrrolidin-1-yl)cyclohexyl)carbamoyl)cyclohexyl)amino)-3-oxopropoxy)ethyl)amino)-2-oxoethoxy)propyl)-1-methyl-5-oxo-2-(pyridin-3-yl)pyrrolidine-3-carboxamide] | 0.631 | 9.244
CC(C)N(C)[C@@H]1CC[C@H](N2CC[C@H](Nc3ncnc4ccc(C(F)(F)F)cc34)C2=O)[C@H](NC(=O)CCCC(=O)N[C@H]2CC[C@H](CNC(=O)CCOCCNC(=O)[C@H]3CC(=O)N(C)[C@@H]3c3cccnc3)CC2)C1 [Example 180, N^1-((1R,2S,5R)-5-(isopropyl(methyl)amino)-2-((S)-2-oxo-3-((6-(trifluoromethyl)quinazolin-4-yl)amino)pyrrolidin-1-yl)cyclohexyl)-N^5-((1S,4R)-4-((3-(2-((2S,3S)-1-methyl-5-oxo-2-(pyridin-3-yl)pyrrolidine-3-carboxamido)ethoxy)propanamido)methyl)cyclohexyl)glutaramide] | 1.26 | 9.249
CC(C)N(C)[C@@H]1CC[C@H](N2CC[C@H](Nc3ncnc4ccc(C(F)(F)F)cc34)C2=O)[C@H](NC(=O)COCCNC(=O)CCNC(=O)CCOCCOCCNC(=O)[C@H]2CC(=O)N(C)[C@@H]2c2cccnc2)C1 [Example 181, (2S,3S)-N-(1-(((1R,2S,5R)-5-(Isopropyl(methyl)amino)-2-((S)-2-oxo-3-((6-(trifluoromethyl)quinazolin-4-yl)amino)pyrrolidin-1-yl)cyclohexyl)amino)-1,7,11-trioxo-3,14,17-trioxa-6,10-diazanonadecan-19-yl)-1-methyl-5-oxo-2-(pyridin-3-yl)pyrrolidine-3-carboxamide] | 0.398 | 9.1645
CC(C)N(C)[C@@H]1CC[C@H](N2CC[C@H](Nc3ncnc4ccc(C(F)(F)F)cc34)C2=O)[C@H](NC(=O)[C@H]2CC[C@@H](NC(=O)CCOCCNC(=O)CCCCNC(=O)[C@H]3CC(=O)N(C)[C@@H]3c3cccnc3)CC2)C1 [Example 198, (2S,3S)-N-(5-((2-(3-(((1S,4s)-4-(((1R,2S,5R)-5-(Isopropyl(methyl)amino)-2-((S)-2-oxo-3-((6-(trifluoromethyl)quinazolin-4-yl)amino)pyrrolidin-1-yl)cyclohexyl)carbamoyl)cyclohexyl)amino)-3-oxopropoxy)ethyl)amino)-5-oxopentyl)-1-methyl-5-oxo-2-(pyridin-3-yl)pyrrolidine-3-carboxamide] | 0.501 | 9.3835
